# Measured values published in PMC6207684, “Structural reorganization of SHP2 by oncogenic mutations and implications for oncoprotein resistance to allosteric inhibition” (Nature Communications, 2018).
# Key:
# wild-type U2OS cells = experiment: Western blot pErk quantification; format: cell-based
# Experimental: (§1) Lysis was visually confirmed with light microscopy, and lysates were added to gel loading buffer and run on Novex^TM wedgewell^TM 12% Tris-Glycine gels (Invitrogen XP00122) at 180 V for 1 h. Proteins were transferred from gels to polyvinylidene difluoride membranes using an iBlot 2 Dry Blotting System (Thermo Fisher IB21001). After transfer, membranes were blocked with either 5% bovine serum albumin or 5% nonfat milk in tris-buffered saline with tween (TBST) at room temperature for 1 h and then incubated with primary antibody (CST 9101 pErk at 1:500 dilution, CST 9102 Erk at 1:500 dilution, CST 3752 SHP2 at 1:300 dilution, or Sigma A1978 β-Actin at 1:3000 dilution) in respective blocking solution overnight at 4 °C, washed 3 × with TBST for 5 min, incubated with secondary antibody (ECL^TM Anti-Rabbit GE NA934V or Anti-Mouse GE NXA931V at 1:10,000 dilution) in respective blocking solution for 1 h at room temperature, and washed 3 x with TBST for 5 min. Following final wash, membranes were imaged on a GE Amersham Imager 600 using SuperSignal® West Pico Chemiluminescent Substrate (Pierce 34080). Linear brightness and contrast adjustments were applied uniformly across the entire image, and band densities were quantified using Fiji[24]. Western blot images are representative of at least two replicates, which were performed on different days.
# PTPN11-null U2OS cells = experiment: Western blot pErk quantification; format: cell-based; conditions: 2 h treatment
# From the text: (§2) PTPN11−/−/− U2OS cells were generated using the methodology described by Zhang et al.[25]. In brief, CRISPR guides against the first three exons of the PTPN11 proto-oncogene were designed using the Sanger CRISPR database, cloned into the pSpCas9(BB)-2A-GFP vector, transfected into U2OS (ATCC® HTB-96^TM) cells using manufacturer-recommended Fugene®HD methodologies, and assayed for knockdown of SHP2 protein levels, via western blot, in bulk.
# Lysis was visually confirmed with light microscopy, and lysates were added to gel loading buffer and run on Novex^TM wedgewell^TM 12% Tris-Glycine gels (Invitrogen XP00122) at 180 V for 1 h. Proteins were transferred from gels to polyvinylidene difluoride membranes using an iBlot 2 Dry Blotting System (Thermo Fisher IB21001). […] Linear brightness and contrast adjustments were applied uniformly across the entire image, and band densities were quantified using Fiji[24]. […]
# [1] = tested on: PTPN11-null U2OS cells expressing SHP2^D61V; experiment: Western blot pErk quantification; format: cell-based; conditions: SHP2^D61V in PTPN11-null U2OS cells (other cancer mutants investigated)
# From the text: as §2
# (§3) Mammalian SHP2 expression plasmids were designed from pCMV-SHP2 WT, which was provided as a gift from Ben Neel (Addgene plasmid #8381), using site-directed mutagenesis (QuikChange, Agilent; see Supplementary Table 4 for the sequences of all primers used in this study). Mutation acquisition and plasmid identity were confirmed via DNA sequencing.
# as §1
# [2] = tested on: PTPN11-null U2OS cells expressing SHP2^E76K; experiment: Western blot pErk quantification; format: cell-based; conditions: SHP2^E76K in PTPN11-null U2OS cells (other cancer mutants investigated)
# From the text: as §2, §3, §1
# [3] = tested on: PTPN11-null U2OS cells expressing SHP2^F285S; experiment: Western blot pErk quantification; format: cell-based; conditions: read-out: IC50 for pErk reduction by SHP099; PTPN11-null U2OS cells harboring SHP2^F285S; 2 h treatment
# From the text: as §2, §3, §1
# [4] = tested on: PTPN11-null U2OS cells expressing SHP2^G60V; experiment: Western blot pErk quantification; format: cell-based; conditions: SHP2^G60V in PTPN11-null U2OS cells (other cancer mutants investigated)
# From the text: as §2, §3, §1
# [5] = tested on: PTPN11-null U2OS cells expressing SHP2^S502P; experiment: Western blot pErk quantification; format: cell-based; conditions: SHP2^S502P in PTPN11-null U2OS cells; 50 μM SHP099
# From the text: as §2, §3, §1
# [6] = tested on: PTPN11-null U2OS cells re-expressing SHP2^WT; experiment: Western blot pErk quantification; format: cell-based
# From the text: as §2, §3, §1
# U2OS cells = experiment: pERK induction by EGF stimulation in serum-starved U2OS cells, western blot; format: cell-based; conditions: U2OS serum starved 48 hours; SHP099 10 µM for 2 hours; EGF 5 nM; lysed 10 min after stimulation
# Experimental: or vehicle cont rol f or 2 hours, and t hen st imulat ed wit h EGF. Cells were lysed on ice 10 min
# af t er st imulat ion, and pErklevels were analyzed by western blot. […]
# wild-type SHP2 = tested on: wild-type SHP2; parameters: method as in PMID 27362227; conditions: biochemical assays; cited from earlier work
# [7] = tested on: cancer cell lines that are dependent on receptor tyrosine kinases and wild-type SHP2; parameters: method as in PMID 27362227; conditions: cited from earlier work
structure (smiles),measurement,setting,value
CC1(N)CCN(c2cnc(-c3cccc(Cl)c3Cl)c(N)n2)CC1 [SHP099],pErk levels upon SHP099 treatment (western blot),wild-type U2OS cells; 2 h treatment,dramatically reduces pErk levels
same,IC50,"wild-type U2OS cells; read-out: IC50 for pErk reduction by SHP099, 2 h treatment, western blot densitometry",2 ± 1 µM
same,pErk levels upon SHP099 treatment (western blot),PTPN11-null U2OS cells,unaffected
same,inhibition of Erk phosphorylation,[1],does not significantly inhibit Erk phosphorylation
same,inhibition of Erk phosphorylation,[2],does not significantly inhibit Erk phosphorylation
same,IC50,[3],8 ± 2 µM
same,inhibition of Erk phosphorylation,[4],does not significantly inhibit Erk phosphorylation
same,loss of pErk,[5],"little, if any, loss of pErk"
same,"reduction of pErk levels by SHP099 (incomplete, maximal)",[6]; SHP2^WT-rescued PTPN11-null U2OS cells,~ 65%
same,IC50,"[6]; read-out: IC50 for pErk reduction by SHP099, PTPN11-null cells re-expressing SHP2^WT, 2 h treatment, western blot densitometry",4 ± 2 µM
same,pERK induction in response to EGF stimulation,U2OS cells,attenuated
same,affinity for wild-type SHP2,wild-type SHP2,nanomolar affinity
same,antiproliferative activity,[7],antiproliferative activity
